Values belong to the molecule of their own block, whether it stands above or below them.
How the values were obtained:
[1] = Inhibition of hedgehog signalling in mouse NIH3T3 cells stably transfected with Gli-luciferase construct incubated for 48 hrs by dual luciferase reporter gene assay; assay type: cell-based; details: NIH3T3, 48 h
[2] = AUC (0 to t) in Sprague-Dawley rat at 1 mg/kg, iv measured during 2 mins to 24 hrs period post dose by LC-MS/MS method; assay type: ADME, organism-based; set-up: time 0.033-24 hr, dose 1 mg/kg, route intravenous; details: in vivo
[3] = Clearance in Sprague-Dawley rat at 1 mg/kg, iv measured during 2 mins to 24 hrs period post dose by LC-MS/MS method; assay type: ADME, organism-based; details: in vivo
[4] = Cmax in Sprague-Dawley rat at 1 mg/kg, iv measured during 2 mins to 24 hrs period post dose by LC-MS/MS method; assay type: ADME, organism-based; set-up: dose 1 mg/kg, route intravenous; details: in vivo
[5] = Mean residence time (0 to t) in Sprague-Dawley rat at 1 mg/kg, iv measured during 2 mins to 24 hrs period post dose by LC/MS/MS method; assay type: ADME, organism-based; details: in vivo
NIH3T3 = test: Potency index, ratio of vismodegib IC50 to compound IC50 for inhibition of hedgehog signalling in mouse NIH3T3 cells stably transfected with Gli-luciferase construct; assay type: cell-based
[6] = Half life in Sprague-Dawley rat at 1 mg/kg, iv measured during 2 mins to 24 hrs period post dose by LC/MS/MS method; assay type: ADME, organism-based; details: in vivo
[7] = Apparent volume of distribution in Sprague-Dawley rat at 1 mg/kg, iv measured during 2 mins to 24 hrs period post dose by LC-MS/MS method; assay type: ADME, organism-based; details: in vivo, read-out: Vz

IC50 [1]: 9.35 nM
Structure (SMILES): COc1ccc(-c2nc(Nc3ccc(C(=O)Nc4cc(CN5CCCC5)ccc4C)cc3)ncc2C(F)(F)F)cn1

IC50 [1]: 7.2 nM | AUC(0-t) [2]: 2460 ng·h/mL
Structure (SMILES): CS(=O)(=O)c1ccc(C(=O)Nc2ccc(Cl)c(-c3ccccn3)c2)c(Cl)c1 [VISMODEGIB]

IC50 [1]: 1.44 nM | AUC(0-t) [2]: 1960 ng·h/mL | clearance [3]: 7.82 mL/min/kg | Cmax [4]: 2220 ng/mL | MRT last [5]: 4.95 h | half-life [6]: 8.63 h | Vd [7]: 5.88 L/kg
Structure (SMILES): Cc1ccc(CN2CCOCC2)cc1NC(=O)c1ccc(Nc2ncc(C(F)(F)F)c(-c3ccc(OC(F)(F)F)cc3)n2)cc1
Ratio IC50 (NIH3T3): 5

IC50 [1]: 14.2 nM | AUC(0-t) [2]: 826 ng·h/mL | clearance [3]: 20.1 mL/min/kg | Cmax [4]: 1420 ng/mL | MRT last [5]: 0.93 h | half-life [6]: 1.03 h | Vd [7]: 1.8 L/kg
Structure (SMILES): Cc1ccc(CN2CCOCC2)cc1NC(=O)c1ccc(Nc2ncc(C(F)(F)F)c(-c3ccccn3)n2)cc1

IC50 [1]: 56.2 nM
Structure (SMILES): Cc1ccc(CN2CCOCC2)cc1NC(=O)c1ccc(Nc2ncc(C(F)(F)F)c(-c3cccnc3)n2)cc1

IC50 [1]: 5.19 nM | AUC(0-t) [2]: 1240 ng·h/mL | clearance [3]: 11.6 mL/min/kg | Cmax [4]: 844 ng/mL | MRT last [5]: 7.15 h | half-life [6]: 9.25 h | Vd [7]: 9.22 L/kg
Structure (SMILES): Cc1ccc(CN2CCN(C)CC2)cc1NC(=O)c1ccc(Nc2ncc(C(F)(F)F)c(-c3ccc(OC(F)(F)F)cc3)n2)cc1

IC50 [1]: 1.3 nM
Structure (SMILES): Cc1cnc(Nc2ccc(C(=O)Nc3c(C)cccc3C)cc2)nc1-c1ccc(OC(F)(F)F)cc1

IC50 [1]: 3.12 nM
Structure (SMILES): Cc1ccc(CN2CCCCC2)cc1NC(=O)c1ccc(Nc2ncc(C(F)(F)F)c(-c3ccc(OC(F)(F)F)cc3)n2)cc1

IC50 [1]: > 500 nM
Structure (SMILES): O=C(c1ccc(Nc2ncc(C(F)(F)F)c(-c3ccc(OC(F)(F)F)nc3)n2)cc1)N1CCCC(N2CCOCC2)C1 (stereo unspecified)

IC50 [1]: 24.9 nM
Structure (SMILES): Cc1ccc(CN(C)C)cc1NC(=O)c1ccc(Nc2ncc(C(F)(F)F)c(-c3ccccc3)n2)cc1

IC50 [1]: 4.24 nM
Structure (SMILES): Cc1ccc(CN2CCOCC2)cc1NC(=O)c1ccc(Nc2ncc(C(F)(F)F)c(-c3ccc(C#N)cc3)n2)cc1

IC50 [1]: > 500 nM
Structure (SMILES): O=C(NC1CCN(C(=O)CO)CC1)c1ccc(Nc2ncc(C(F)(F)F)c(-c3ccc(OC(F)(F)F)nc3)n2)cc1

IC50 [1]: 1.6 nM
Structure (SMILES): Cc1cccc(C)c1NC(=O)c1ccc(Nc2ncc(F)c(-c3ccc(OC(F)(F)F)cc3)n2)cc1

IC50 [1]: 62.8 nM
Structure (SMILES): CCN1CCN(Cc2ccc(C)c(NC(=O)c3ccc(Nc4ncc(C(F)(F)F)c(-c5ccc(OC(F)(F)F)cc5)n4)cc3)c2)CC1

IC50 [1]: 16.9 nM
Structure (SMILES): CCn1cc(-c2nc(Nc3ccc(C(=O)Nc4cc(CN5CCOCC5)ccc4C)cc3)ncc2C(F)(F)F)cn1

IC50 [1]: 24.5 nM
Structure (SMILES): Cc1ccc(CN2CCOCC2)cc1NC(=O)c1ccc(Nc2ncc(C(F)(F)F)c(-c3cnn(C)c3)n2)cc1

IC50 [1]: 4.23 nM
Structure (SMILES): Cc1ccc(CN2CCCC2)cc1NC(=O)c1ccc(Nc2ncc(C(F)(F)F)c(-c3ccc(OC(F)(F)F)cc3)n2)cc1

IC50 [1]: 102 nM | AUC(0-t) [2]: 807 ng·h/mL | clearance [3]: 20.9 mL/min/kg | Cmax [4]: 1190 ng/mL | MRT last [5]: 1.23 h | half-life [6]: 2.32 h | Vd [7]: 4.13 L/kg
Structure (SMILES): Cc1ccc(CN2CCOCC2)cc1NC(=O)c1ccc(Nc2ncc(C(F)(F)F)c(-c3ccccc3)n2)cc1

IC50 [1]: 26.3 nM
Structure (SMILES): Cc1ccc(CN2CCCC2)cc1NC(=O)c1ccc(Nc2ncc(C(F)(F)F)c(-c3cnn(C)c3)n2)cc1

IC50 [1]: 18.2 nM
Structure (SMILES): Cc1ccc(CN(C)C)cc1NC(=O)c1ccc(Nc2ncc(C(F)(F)F)c(-c3ccc(OC(F)(F)F)cc3)n2)cc1
